Measured values from ChEMBL document CHEMBL1201862, “PubChem BioAssay data set” (2004).
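Each compound was tested at five concentrations against cells in 96-well plates for 48 hours. GI50: concentration for 50% inhibition of growth.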 The source made the active and inactive calls. Cut-off read from the data, not from the text of the source: active = GI50 up to about 1.1 µM and inactive = higher.

What was measured:
Experiment in all cases: NCI anticancer screen, dose series, 48 h
[1] = system: NCI-H226
[2] = system: Malme-3M
[3] = system: CAKI-1
[4] = system: TK-10
[5] = system: OVCAR-8
[6] = system: OVCAR-3
[7] = system: MOLT-4
[8] = system: UACC-257
[9] = system: A549
[10] = system: K562
[11] = system: SK-MEL-28
[12] = system: OVCAR-5
[13] = system: NCI-H460
[14] = system: KM12
[15] = system: SK-MEL-2
[16] = system: 786-0
[17] = system: UO-31
[18] = system: NCI-H522
[19] = system: HOP-92
[20] = system: NCI-H23

Measured: GI50

Nc1nc(-c2ccc3ccccc3c2)cc(-c2cc(-c3ccc4ccccc4c3)nc(N)n2)n1
inactive: [1] > 100 µM | [2] > 100 µM | [3] > 100 µM | [4] > 100 µM | [5] > 100 µM | [6] > 100 µM | [7] > 100 µM | [8] > 100 µM | [9] > 100 µM | [10] > 100 µM | [11] > 100 µM | [12] > 100 µM | [13] > 100 µM | [14] > 100 µM | [15] > 100 µM | [16] > 100 µM | [17] > 100 µM | [18] > 100 µM | [19] > 100 µM | [20] > 100 µM

CC(C)CNc1nc2ncnc(N)c2[nH]1
inactive: [1] > 100 µM | [2] > 100 µM | [3] > 100 µM | [4] > 100 µM | [5] > 100 µM | [6] > 100 µM | [7] > 100 µM | [8] > 100 µM | [9] > 100 µM | [10] > 100 µM | [11] > 100 µM | [12] > 100 µM | [13] > 100 µM | [14] > 100 µM | [15] > 100 µM | [16] > 100 µM | [17] > 100 µM | [18] > 100 µM | [19] 56.8 µM | [20] > 100 µM

CC1COS(=O)O1 (stereo not given)
inactive: [1] > 100 µM | [2] > 100 µM | [3] > 100 µM | [4] > 100 µM | [5] > 100 µM | [6] > 100 µM | [7] > 100 µM | [8] > 100 µM | [9] > 100 µM | [10] > 100 µM | [11] > 100 µM | [12] > 100 µM | [13] > 100 µM | [14] > 100 µM | [15] > 100 µM | [16] > 100 µM | [17] > 100 µM | [18] > 100 µM | [19] > 100 µM | [20] > 100 µM

CC(C)c1cc(C(C)C)c(P2(=O)CC3C(Cl)(Cl)C3(C)C2)c(C(C)C)c1 (stereo not given)
inactive: [1] 16.7 µM | [2] 17.5 µM | [3] 4.71 µM | [4] 12.1 µM | [5] 7.67 µM | [6] 7.57 µM | [7] 2.77 µM | [8] 7.96 µM | [9] 9.33 µM | [10] 8.95 µM | [11] 15.8 µM | [12] 16.3 µM | [13] 11.5 µM | [14] 10.6 µM | [15] 11.3 µM | [16] 6.22 µM | [17] 1.86 µM | [18] 2.09 µM | [19] 12.2 µM | [20] 9.55 µM

CCOC(=O)c1cn2c(n1)sc1cc(Cl)cc(Cl)c12
inactive: [1] > 100 µM | [2] > 100 µM | [3] > 100 µM | [4] > 100 µM | [5] > 100 µM | [6] > 100 µM | [7] > 100 µM | [8] > 100 µM | [9] > 100 µM | [10] > 100 µM | [11] > 100 µM | [12] > 100 µM | [13] > 100 µM | [14] > 100 µM | [15] > 100 µM | [16] > 100 µM | [17] > 100 µM | [18] > 100 µM | [19] > 100 µM | [20] > 100 µM

COc1ccc(CCc2ccc(O)c(C(=O)O)c2)cc1OC
inactive: [1] > 100 µM | [2] > 100 µM | [3] 32.4 µM | [4] > 100 µM | [5] > 100 µM | [6] > 100 µM | [7] 59.2 µM | [8] > 100 µM | [9] > 100 µM | [10] 59.7 µM | [11] > 100 µM | [12] > 100 µM | [13] > 100 µM | [14] > 100 µM | [15] > 100 µM | [16] > 100 µM | [17] > 100 µM | [18] > 100 µM | [19] > 100 µM | [20] > 100 µM

O=C1O[C@H]2C3C4CCC(C4[C@@H]2I)[C@H]13 (stereo not given in full)
inactive: [1] > 100 µM | [2] > 100 µM | [3] > 100 µM | [4] > 100 µM | [5] > 100 µM | [6] > 100 µM | [7] > 100 µM | [8] > 100 µM | [9] > 100 µM | [10] > 100 µM | [11] > 100 µM | [12] > 100 µM | [13] > 100 µM | [14] > 100 µM | [15] > 100 µM | [16] > 100 µM | [17] > 100 µM | [18] > 100 µM | [19] > 100 µM | [20] > 100 µM

COc1ccc(C2CC(c3c(O)ccc4ccccc34)=NN2c2ccc([N+](=O)[O-])cc2[N+](=O)[O-])cc1OC (stereo not given)
inactive: [1] 13.9 µM | [2] 17.4 µM | [3] 16.9 µM | [4] 24.3 µM | [5] 5.32 µM | [6] 12.1 µM | [7] 4.78 µM | [8] 22.4 µM | [9] 17.1 µM | [10] 3.47 µM | [11] 34.2 µM | [12] 24.3 µM | [13] 14.6 µM | [14] 13.2 µM | [15] 19.4 µM | [16] 29 µM | [17] 9.25 µM | [18] 2.46 µM | [19] 19.4 µM | [20] 6.82 µM

COC(=O)/C=C\COCC1C2CCC(=O)C21 (stereo not given)
inactive: [1] 18.5 µM | [2] 4.67 µM | [4] 13 µM | [5] > 25 µM | [6] 8.41 µM | [7] 6.07 µM | [8] 10.4 µM | [9] > 25 µM | [10] 8.28 µM | [11] > 25 µM | [12] > 25 µM | [13] 6.79 µM | [14] 17.9 µM | [15] > 25 µM | [16] 11.5 µM | [17] 11.6 µM | [18] 3.86 µM | [19] 5.77 µM | [20] > 25 µM
active: [3] 0.632 µM

CSC1(SC)N2Cc3ccccc3N=C2C1(c1ccccc1)c1ccccc1
inactive: [1] > 100 µM | [2] 8.22 µM | [3] 11 µM | [4] > 35.1 µM | [5] 29.2 µM | [6] 6.4 µM | [7] 2.77 µM | [8] 13 µM | [9] 13.8 µM | [10] 10.1 µM | [11] 38.1 µM | [12] > 40.1 µM | [13] 7.48 µM | [14] 7.73 µM | [15] 12.7 µM | [16] 22.5 µM | [17] 24.8 µM | [18] 5.96 µM | [19] 4.12 µM | [20] 16 µM

COc1nc(C(Cl)(Cl)Cl)c(Cl)c(OC)c1Cl [PENCLOMEDINE]
inactive: [1] 34.4 µM | [2] 31.2 µM | [3] 40.3 µM | [4] 52.6 µM | [5] 21.2 µM | [6] 38.8 µM | [7] 19.4 µM | [8] 43.8 µM | [9] 40.5 µM | [10] 26.4 µM | [11] 39.7 µM | [12] 42.9 µM | [13] 21.9 µM | [14] 33.7 µM | [15] 35.1 µM | [16] 6.59 µM | [17] 40.8 µM | [18] 33.1 µM | [19] 28.2 µM | [20] 42.2 µM
